# Test results from patent US20080009418A1, “Selective Inhibitors” (Alchemia LTD., priority 2004, published 2008).
# Tests used:
# Human δ-opioid (DOP) = target: T1, Human δ-opioid (DOP) (Homo sapiens, UniProt P41143); test: Radioligand binding, human δ-opioid (DOP) membranes, FlashPlate, [3H]-Bremazocine; details: compound at 10 μM, [3H]-Bremazocine; for A1: inhibition of radioligand binding: human DOP membranes
# T1 construct: purchased Perkin Elmer Biosignal
# Summary of the method: (§1)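 Cloned human receptor membranes were coated onto FlashPlate wells and incubated with radioligand and compound (added from a 0.5 mM DMSO daughter plate) for 1 hour at room temperature in the dark. Scintillation counting gave percent inhibition, with DMSO defining total and reference ligand defining non-specific binding.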
# Human κ-Opioid (KOP) = target: T2, Human κ-Opioid (KOP) (Homo sapiens, UniProt P41145); test: Radioligand binding, human κ-opioid (KOP) membranes, filtration, [3H]-Diprenorphine; details: compound at 10 μM, [3H]-Diprenorphine; for A2: inhibition of radioligand binding: human KOP membranes
# T2 construct: purchased Perkin Elmer Biosignal
# T2 sequence (P41145 whole entry): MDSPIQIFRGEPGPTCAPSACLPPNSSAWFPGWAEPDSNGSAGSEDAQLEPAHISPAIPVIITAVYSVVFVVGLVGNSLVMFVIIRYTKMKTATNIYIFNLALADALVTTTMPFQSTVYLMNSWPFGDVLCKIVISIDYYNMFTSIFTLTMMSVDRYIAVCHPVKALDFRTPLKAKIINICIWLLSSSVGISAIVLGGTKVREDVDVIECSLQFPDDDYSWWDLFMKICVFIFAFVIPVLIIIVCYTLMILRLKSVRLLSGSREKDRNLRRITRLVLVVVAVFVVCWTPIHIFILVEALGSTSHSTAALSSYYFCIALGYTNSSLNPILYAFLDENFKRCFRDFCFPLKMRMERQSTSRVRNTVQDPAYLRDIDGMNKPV
# Summary of the method: (§2)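 Filtration binding on cloned human receptor membranes (1 Unit/well), [125I]-Substance P for NK1 and [3H]-Diprenorphine for KOP, 1 h at room temperature. Filters PEI-presoaked, washed with cold 50 mM Tris-HCl pH 7.4, counted by scintillation; percent inhibition calculated, reference ligand defining non-specific binding.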
# Human Melanocortin (MC3) = target: T3, Human Melanocortin (MC3) (Homo sapiens, UniProt P41968); test: Radioligand binding, human melanocortin MC3 membranes, FlashPlate, [125I]-NDP-αMSH; details: compound at 10 μM, [125I]-NDP-αMSH; for A3: inhibition of radioligand binding: human MC3 membranes
# T3 construct: purchased Perkin Elmer Biosignal
# T3 sequence (P41968 whole entry): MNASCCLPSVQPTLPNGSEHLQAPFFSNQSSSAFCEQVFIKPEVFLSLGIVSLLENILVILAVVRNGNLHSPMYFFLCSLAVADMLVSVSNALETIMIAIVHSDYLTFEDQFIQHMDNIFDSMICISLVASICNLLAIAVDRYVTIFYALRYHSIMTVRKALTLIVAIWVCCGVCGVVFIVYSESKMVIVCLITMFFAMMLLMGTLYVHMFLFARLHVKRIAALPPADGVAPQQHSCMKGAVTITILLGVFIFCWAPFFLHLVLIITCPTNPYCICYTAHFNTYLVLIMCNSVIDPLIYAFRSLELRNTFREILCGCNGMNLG
# Summary of the method: as §1
# Human Melanocortin (MC4) = target: T4, Human Melanocortin (MC4) (Homo sapiens, UniProt P32245); test: Radioligand binding, human melanocortin MC4 membranes, FlashPlate, [125I]-NDP-αMSH; details: compound at 10 μM, [125I]-NDP-αMSH; for A4: inhibition of radioligand binding: human MC4 membranes
# T4 construct: purchased Perkin Elmer Biosignal
# T4 sequence (P32245 whole entry): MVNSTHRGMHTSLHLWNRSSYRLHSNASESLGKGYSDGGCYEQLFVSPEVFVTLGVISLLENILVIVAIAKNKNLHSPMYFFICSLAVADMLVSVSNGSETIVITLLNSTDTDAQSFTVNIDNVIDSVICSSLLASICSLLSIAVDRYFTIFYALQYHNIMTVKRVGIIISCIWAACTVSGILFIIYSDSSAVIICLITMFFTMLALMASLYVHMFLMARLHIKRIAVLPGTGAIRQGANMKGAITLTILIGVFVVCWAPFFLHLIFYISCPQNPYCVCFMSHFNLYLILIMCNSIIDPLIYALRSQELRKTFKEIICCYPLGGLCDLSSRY
# Summary of the method: as §1
# Human melanocortin (MC5) = target: T5, Human melanocortin (MC5) (Homo sapiens, UniProt P33032); test: Radioligand binding, human melanocortin MC5 membranes, FlashPlate, [125I]-NDP-αMSH; details: compound at 10 μM, [125I]-NDP-αMSH; for A5: inhibition of radioligand binding: human MC5 membranes
# T5 construct: purchased Perkin Elmer Biosignal
# T5 sequence (P33032 whole entry): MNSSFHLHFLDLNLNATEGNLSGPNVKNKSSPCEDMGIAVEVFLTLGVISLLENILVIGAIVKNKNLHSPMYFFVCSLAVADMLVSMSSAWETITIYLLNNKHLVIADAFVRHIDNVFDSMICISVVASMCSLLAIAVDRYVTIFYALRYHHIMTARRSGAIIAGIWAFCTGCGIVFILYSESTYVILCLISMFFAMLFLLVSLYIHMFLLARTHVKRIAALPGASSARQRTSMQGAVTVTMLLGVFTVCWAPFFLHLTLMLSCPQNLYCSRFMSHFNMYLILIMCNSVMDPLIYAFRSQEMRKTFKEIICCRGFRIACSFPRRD
# Summary of the method: as §1
# [1] = target: T6, Human melanin-concentrating hormone (MCH1) (Homo sapiens, UniProt Q99705); test: Radioligand binding, human melanin-concentrating hormone MCH1 membranes, FlashPlate, [125I]-S36057; details: compound at 10 μM; for A6: inhibition of radioligand binding, human melanin-concentrating hormone (MCH1): [125I]-S36057; for A6: inhibition of radioligand binding: [125I]-S36057, human MCH1 membranes
# T6 construct: purchased Perkin Elmer Biosignal
# T6 sequence (Q99705 whole entry): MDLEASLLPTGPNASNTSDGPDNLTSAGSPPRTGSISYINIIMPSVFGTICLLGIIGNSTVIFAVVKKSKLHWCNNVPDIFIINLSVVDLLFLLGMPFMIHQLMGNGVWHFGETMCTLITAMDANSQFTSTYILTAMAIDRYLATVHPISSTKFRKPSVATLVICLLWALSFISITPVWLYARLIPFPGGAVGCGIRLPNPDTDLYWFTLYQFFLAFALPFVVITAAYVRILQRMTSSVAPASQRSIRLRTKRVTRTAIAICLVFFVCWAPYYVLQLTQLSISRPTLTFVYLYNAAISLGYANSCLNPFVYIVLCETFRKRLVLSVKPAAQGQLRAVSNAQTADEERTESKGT
# Summary of the method: as §1
# Human μ-opioid (MOP) = target: T7, Human μ-opioid (MOP) (Homo sapiens, UniProt P35372); test: Radioligand binding, human μ-opioid (MOP) membranes, FlashPlate, [3H]-Naloxone; details: compound at 10 μM, [3H]-Naloxone; for A7: inhibition of radioligand binding: human MOP membranes
# T7 construct: purchased Perkin Elmer Biosignal
# T7 sequence (P35372 whole entry): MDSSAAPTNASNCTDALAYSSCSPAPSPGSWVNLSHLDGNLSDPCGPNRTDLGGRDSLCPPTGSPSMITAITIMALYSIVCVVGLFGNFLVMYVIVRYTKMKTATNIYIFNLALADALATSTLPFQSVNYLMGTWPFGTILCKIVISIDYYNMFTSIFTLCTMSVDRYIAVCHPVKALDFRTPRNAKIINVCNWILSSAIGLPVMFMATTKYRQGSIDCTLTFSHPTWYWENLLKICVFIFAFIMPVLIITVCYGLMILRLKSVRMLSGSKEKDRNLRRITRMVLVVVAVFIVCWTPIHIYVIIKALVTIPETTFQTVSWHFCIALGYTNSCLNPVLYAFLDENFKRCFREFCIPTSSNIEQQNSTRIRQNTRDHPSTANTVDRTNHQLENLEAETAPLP
# Summary of the method: as §1
# Human neurokinin (NK1) = target: T8, Human neurokinin (NK1) (Homo sapiens, UniProt P25103); test: Radioligand binding, human neurokinin NK1 membranes, filtration, [125I]-Substance P; details: compound at 10 μM, [125I]-Substance P; for A8: inhibition of radioligand binding: human NK1 membranes
# T8 construct: purchased Perkin Elmer Biosignal
# T8 sequence (P25103 whole entry): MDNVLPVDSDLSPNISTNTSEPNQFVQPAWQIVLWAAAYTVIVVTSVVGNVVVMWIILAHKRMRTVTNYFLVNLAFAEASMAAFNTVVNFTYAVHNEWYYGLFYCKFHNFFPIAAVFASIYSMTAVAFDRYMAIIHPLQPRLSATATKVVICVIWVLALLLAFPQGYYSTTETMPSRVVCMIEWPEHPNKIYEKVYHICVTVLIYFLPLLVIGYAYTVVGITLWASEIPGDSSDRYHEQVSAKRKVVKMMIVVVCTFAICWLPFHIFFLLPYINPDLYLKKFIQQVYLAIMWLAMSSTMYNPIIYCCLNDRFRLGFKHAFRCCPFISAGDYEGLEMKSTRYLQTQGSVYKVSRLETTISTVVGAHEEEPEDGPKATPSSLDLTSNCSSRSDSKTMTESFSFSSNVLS
# Summary of the method: as §2
# [2] = target: T9, Human neuropeptide Y (NPY-Y1) (Homo sapiens, UniProt P25929); test: Radioligand binding, human neuropeptide Y NPY-Y1 membranes, FlashPlate, [125I]-PYY; details: compound at 10 μM, [125I]-PYY; for A9: inhibition of radioligand binding: human NPY-Y1 membranes
# T9 construct: purchased Perkin Elmer Biosignal
# T9 sequence (P25929 1-384): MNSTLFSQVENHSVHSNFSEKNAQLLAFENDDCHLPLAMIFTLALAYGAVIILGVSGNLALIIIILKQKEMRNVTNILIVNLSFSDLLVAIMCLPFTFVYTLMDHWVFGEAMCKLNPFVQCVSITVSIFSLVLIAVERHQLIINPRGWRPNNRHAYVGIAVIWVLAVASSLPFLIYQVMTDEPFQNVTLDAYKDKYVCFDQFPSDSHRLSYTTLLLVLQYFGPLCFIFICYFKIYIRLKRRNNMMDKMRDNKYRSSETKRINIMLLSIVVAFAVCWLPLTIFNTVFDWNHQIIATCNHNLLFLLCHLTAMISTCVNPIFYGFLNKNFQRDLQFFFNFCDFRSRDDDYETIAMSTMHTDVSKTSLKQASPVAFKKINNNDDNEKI
# Summary of the method: as §1
# Human opioid (ORL1) = target: T10, Human opioid (ORL1) (Homo sapiens, UniProt P41146); test: Radioligand binding, human opioid ORL1 membranes, FlashPlate, [125I]-Nociceptin; details: compound at 10 μM, [125I]-Nociceptin; for A10: inhibition of radioligand binding: human ORL1 membranes
# T10 construct: purchased Perkin Elmer Biosignal
# T10 sequence (P41146 whole entry): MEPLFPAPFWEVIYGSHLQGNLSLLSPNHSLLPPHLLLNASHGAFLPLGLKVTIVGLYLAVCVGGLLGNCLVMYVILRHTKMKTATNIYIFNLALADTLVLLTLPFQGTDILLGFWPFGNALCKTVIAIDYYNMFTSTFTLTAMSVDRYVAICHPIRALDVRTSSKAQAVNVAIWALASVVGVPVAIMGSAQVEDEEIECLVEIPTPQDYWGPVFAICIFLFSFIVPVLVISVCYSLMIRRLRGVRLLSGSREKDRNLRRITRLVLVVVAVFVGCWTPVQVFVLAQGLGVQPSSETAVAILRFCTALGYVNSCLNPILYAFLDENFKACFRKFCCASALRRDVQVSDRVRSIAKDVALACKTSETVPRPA
# Summary of the method: as §1
# Mouse urotensin (mUR2) = target: T11, Mouse urotensin (mUR2) (Mus musculus, UniProt Q8VIH9); test: Radioligand binding, mouse urotensin mUR2 membranes, FlashPlate, [125I]-Urotensin II; details: compound at 10 μM, [125I]-Urotensin II; for A11: inhibition of radioligand binding: mouse mUR2 membranes
# T11 construct: purchased Perkin Elmer Biosignal
# T11 sequence (Q8VIH9 1-385): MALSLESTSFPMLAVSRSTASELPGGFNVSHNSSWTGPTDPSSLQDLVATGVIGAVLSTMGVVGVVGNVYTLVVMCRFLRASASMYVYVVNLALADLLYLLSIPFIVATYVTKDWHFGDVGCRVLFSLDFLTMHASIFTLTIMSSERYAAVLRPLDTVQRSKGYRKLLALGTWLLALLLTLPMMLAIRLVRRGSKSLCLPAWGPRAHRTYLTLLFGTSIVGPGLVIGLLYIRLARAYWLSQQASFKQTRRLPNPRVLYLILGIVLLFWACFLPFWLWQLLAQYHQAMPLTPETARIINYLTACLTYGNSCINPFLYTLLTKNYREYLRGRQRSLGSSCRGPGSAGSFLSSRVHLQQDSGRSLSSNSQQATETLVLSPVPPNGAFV
# Summary of the method: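 Cloned mouse urotensin (mUR2) receptor membranes from Perkin Elmer Biosignal were immobilized in FlashPlate microplates using a proprietary coating. Each well got 19.5 μl buffer, then 0.5 μl of DMSO, reference ligand, or compound. Adding 5 μl of [125I]-Urotensin II, diluted to 5× final concentration in binding buffer, started binding. Plates were sealed with TopSeal-A and incubated 1 hour at room temperature in the dark. Wells were counted for 30 seconds each on a TopCount after a 60-second delay, and percentage inhibition was calculated.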
# T1 sequence (P41143 whole entry): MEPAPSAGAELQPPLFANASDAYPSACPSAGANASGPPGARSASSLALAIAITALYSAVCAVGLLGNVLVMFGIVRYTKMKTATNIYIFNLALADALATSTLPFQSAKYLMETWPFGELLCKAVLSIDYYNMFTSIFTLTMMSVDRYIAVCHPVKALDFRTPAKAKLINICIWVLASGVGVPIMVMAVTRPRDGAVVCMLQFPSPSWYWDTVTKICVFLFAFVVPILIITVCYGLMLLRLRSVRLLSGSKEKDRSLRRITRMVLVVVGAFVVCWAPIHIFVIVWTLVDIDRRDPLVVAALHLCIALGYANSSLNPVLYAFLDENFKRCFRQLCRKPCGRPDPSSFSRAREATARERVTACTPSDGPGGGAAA
SMILES,"A1: inhibition of radioligand binding, human δ-opioid (DOP) (Human δ-opioid (DOP))","A2: inhibition of radioligand binding, human κ-opioid (KOP) (Human κ-Opioid (KOP))","A5: inhibition of radioligand binding, human melanocortin (MC5) (Human melanocortin (MC5))","A7: inhibition of radioligand binding, human μ-opioid (MOP) (Human μ-opioid (MOP))","A8: inhibition of radioligand binding, human neurokinin (NK1) (Human neurokinin (NK1))","A9: inhibition of radioligand binding, human neuropeptide Y (NPY-Y1) [2]","A11: inhibition of radioligand binding, mouse urotensin (mUR2) (Mouse urotensin (mUR2))",A1: inhibition of radioligand binding (Human δ-opioid (DOP)),A2: inhibition of radioligand binding (Human κ-Opioid (KOP)),A3: inhibition of radioligand binding (Human Melanocortin (MC3)),A4: inhibition of radioligand binding (Human Melanocortin (MC4)),A5: inhibition of radioligand binding (Human melanocortin (MC5)),A6: inhibition of radioligand binding [1],A7: inhibition of radioligand binding (Human μ-opioid (MOP)),A8: inhibition of radioligand binding (Human neurokinin (NK1)),A9: inhibition of radioligand binding [2],A10: inhibition of radioligand binding (Human opioid (ORL1)),A11: inhibition of radioligand binding (Mouse urotensin (mUR2)),"A3: inhibition of radioligand binding, human melanocortin (MC3) (Human Melanocortin (MC3))","A4: inhibition of radioligand binding, human melanocortin (MC4) (Human Melanocortin (MC4))",other results
"NCCC(=O)NC1C(OCc2ccc(Cl)cc2)OC(COCc2ccc3ccccc3c2)C(O)C1OCc1ccc2ccccc2c1 (single isomer, unassigned) [compound 477]",− (“−” indicates less than 50% inhibition at 10 μM),− (“−” indicates less than 50% inhibition at 10 μM),+ (“+” indicates greater than 50% inhibition at 10 μM),− (“−” indicates less than 50% inhibition at 10 μM),+ (“+” indicates greater than 50% inhibition at 10 μM),− (“−” indicates less than 50% inhibition at 10 μM),− (“−” indicates less than 50% inhibition at 10 μM),,,,,,,,,,,,,,"A3: inhibition of radioligand binding, human melanocortin (MC3) (Human Melanocortin (MC3); 10 µM): − (“−” indicates less than 50% inhibition at 10 μM); A4: inhibition of radioligand binding, human melanocortin (MC4) (Human Melanocortin (MC4); 10 µM): − (“−” indicates less than 50% inhibition at 10 μM); A6: inhibition of radioligand binding, human melanin-concentrating hormone (MCH1) ([1]; 10 µM): − (“−” indicates less than 50% inhibition at 10 μM); A10: inhibition of radioligand binding, human opioid (ORL1) (Human opioid (ORL1); 10 µM): + (“+” indicates greater than 50% inhibition at 10 μM)"
N=C(N)NCCCC(=O)NC1C(OCc2ccc(-c3ccccc3)cc2)OC(COCc2ccccc2)C(O)C1OCc1ccccc1 (stereo not shown) [compound 435],,,,,,,,− (“−” indicates less than 50% inhibition at 10 μM),+ (“+” indicates greater than 50% inhibition at 10 μM),+ (“+” indicates greater than 50% inhibition at 10 μM),+ (“+” indicates greater than 50% inhibition at 10 μM),+ (“+” indicates greater than 50% inhibition at 10 μM),+ (“+” indicates greater than 50% inhibition at 10 μM),+ (“+” indicates greater than 50% inhibition at 10 μM),+ (“+” indicates greater than 50% inhibition at 10 μM),− (“−” indicates less than 50% inhibition at 10 μM),+ (“+” indicates greater than 50% inhibition at 10 μM),− (“−” indicates less than 50% inhibition at 10 μM),,,
CO[C@H]1[C@H](O)[C@@H](COCc2ccc3ccccc3c2)OC(OCc2ccc(Cl)cc2)[C@@H]1NC(=O)C(N)CN (stereo partly shown) [compound 351],− (“−” indicates less than 50% inhibition at 10 μM),− (“−” indicates less than 50% inhibition at 10 μM),− (“−” indicates less than 50% inhibition at 10 μM),− (“−” indicates less than 50% inhibition at 10 μM),+ (“+” indicates greater than 50% inhibition at 10 μM),− (“−” indicates less than 50% inhibition at 10 μM),− (“−” indicates less than 50% inhibition at 10 μM),,,,,,,,,,,,− (“−” indicates less than 50% inhibition at 10 μM),− (“−” indicates less than 50% inhibition at 10 μM),"A6: inhibition of radioligand binding, human melanin-concentrating hormone (MCH1) [1]: − (“−” indicates less than 50% inhibition at 10 μM); A10: inhibition of radioligand binding, human opioid (ORL1) (Human opioid (ORL1)): − (“−” indicates less than 50% inhibition at 10 μM)"
N=C(N)NCCC(=O)N[C@H]1C(OCc2ccc(Cl)cc2)O[C@H](COCc2ccc(Cl)cc2)[C@@H](O)[C@@H]1OCc1ccc(-c2ccccc2)cc1 (stereo partly shown) [compound 537],− (“−” indicates less than 50% inhibition at 10 μM),,+ (“+” indicates greater than 50% inhibition at 10 μM),− (“−” indicates less than 50% inhibition at 10 μM),+ (“+” indicates greater than 50% inhibition at 10 μM),,,,,,,,,,,,,,+ (“+” indicates greater than 50% inhibition at 10 μM),+ (“+” indicates greater than 50% inhibition at 10 μM),"A2: inhibition of radioligand binding, human κ-opioid (KOP) (Human κ-Opioid (KOP); 10 µM): − (“−” indicates less than 50% inhibition at 10 μM); A6: inhibition of radioligand binding, human melanin-concentrating hormone (MCH1) [1]: + (“+” indicates greater than 50% inhibition at 10 μM); A9: inhibition of radioligand binding, human neuropeptide Y (NPY-Y1) ([2]; 10 µM): − (“−” indicates less than 50% inhibition at 10 μM); A10: inhibition of radioligand binding, human opioid (ORL1) (Human opioid (ORL1)): + (“+” indicates greater than 50% inhibition at 10 μM); A11: inhibition of radioligand binding, mouse urotensin (mUR2) (Mouse urotensin (mUR2); 10 µM): − (“−” indicates less than 50% inhibition at 10 μM)"
N=C(N)NCC(=O)NC1C(OCc2ccc(Cl)cc2)OC(COCc2ccc(Cl)cc2)C(O)C1OCc1ccc(Cl)cc1 (stereo not shown) [compound 419],,,,,,,,− (“−” indicates less than 50% inhibition at 10 μM),− (“−” indicates less than 50% inhibition at 10 μM),+ (“+” indicates greater than 50% inhibition at 10 μM),+ (“+” indicates greater than 50% inhibition at 10 μM),+ (“+” indicates greater than 50% inhibition at 10 μM),+ (“+” indicates greater than 50% inhibition at 10 μM),− (“−” indicates less than 50% inhibition at 10 μM),+ (“+” indicates greater than 50% inhibition at 10 μM),− (“−” indicates less than 50% inhibition at 10 μM),+ (“+” indicates greater than 50% inhibition at 10 μM),− (“−” indicates less than 50% inhibition at 10 μM),,,
